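Cells were grown in 96-well plates and exposed to each compound for 48 hours at five concentrations; endpoints were interpolated linearly between bracketing concentrations, or set to the highest concentration if not reached. Here, GI50 denotes the concentration required for 50% inhibition of growth. TGI denotes the concentration required for complete inhibition of growth.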
What was measured:
Experiment in all cases: inhibition of tumour cell growth, NCI panel, 48 h
RPMI-8226 leukemia = system: RPMI-8226 leukemia
HOP-62 NSCLC = system: HOP-62 NSCLC
IGROV1 ovarian = system: IGROV1 ovarian
A549 NSCLC = system: A549 NSCLC
BT-549 breast = system: BT-549 breast
HT29 colon = system: HT29 colon
DU-145 prostate = system: DU-145 prostate
UACC-257 melanoma = system: UACC-257 melanoma
MDA-MB-435 = system: MDA-MB-435
SK-MEL-2 melanoma = system: SK-MEL-2 melanoma
PC-3 prostate = system: PC-3 prostate
SF-539 CNS = system: SF-539 CNS
U251 CNS = system: U251 CNS
HCT-15 colon = system: HCT-15 colon
TK-10 renal = system: TK-10 renal
SR leukemia = system: SR leukemia
COLO 205 colon = system: COLO 205 colon
OVCAR-4 ovarian = system: OVCAR-4 ovarian
UO-31 renal = system: UO-31 renal
HOP-92 NSCLC = system: HOP-92 NSCLC
OVCAR-8 ovarian = system: OVCAR-8 ovarian
HCT-116 colon = system: HCT-116 colon
ACHN renal = system: ACHN renal
MDA-MB-231 breast = system: MDA-MB-231 breast
HL-60(TB) leukemia = system: HL-60(TB) leukemia
SK-MEL-28 melanoma = system: SK-MEL-28 melanoma
SK-OV-3 ovarian = system: SK-OV-3 ovarian
SF-268 CNS = system: SF-268 CNS
MOLT-4 leukemia = system: MOLT-4 leukemia
EKVX NSCLC = system: EKVX NSCLC
SNB-19 CNS = system: SNB-19 CNS
SW-620 colon = system: SW-620 colon
NCI-H460 lung = system: NCI-H460 lung
SN12C renal = system: SN12C renal
RXF 393 renal = system: RXF 393 renal
A498 renal = system: A498 renal
NCI-H23 lung = system: NCI-H23 lung
HS 578T breast = system: HS 578T breast
OVCAR-5 ovarian = system: OVCAR-5 ovarian
K-562 leukemia = system: K-562 leukemia
LOX IMVI melanoma = system: LOX IMVI melanoma
MCF7 breast = system: MCF7 breast
CCRF-CEM leukemia = system: CCRF-CEM leukemia
NCI-H522 lung = system: NCI-H522 lung
MALME-3M melanoma = system: MALME-3M melanoma
SK-MEL-5 melanoma = system: SK-MEL-5 melanoma
KM12 colon = system: KM12 colon
786-0 renal = system: 786-0 renal
SNB-75 CNS = system: SNB-75 CNS
CAKI-1 renal = system: CAKI-1 renal
HCC-2998 colon = system: HCC-2998 colon
UACC-62 melanoma = system: UACC-62 melanoma
SF-295 CNS = system: SF-295 CNS
M14 melanoma = system: M14 melanoma

COc1cc2c(cc1OC)C(Sc1ccc(F)cc1)c1c(nc(N)c(C#N)c1N)O2 (configuration not stated)
GI50 (RPMI-8226 leukemia): 754 nM | GI50 (HOP-62 NSCLC): 1710 nM | TGI (HOP-62 NSCLC): 3190 nM | GI50 (IGROV1 ovarian): 534 nM | TGI (IGROV1 ovarian): 1950 nM | GI50 (A549 NSCLC): 1530 nM | TGI (A549 NSCLC): 3000 nM | GI50 (BT-549 breast): 760 nM | TGI (BT-549 breast): 2170 nM | GI50 (HT29 colon): 1600 nM | TGI (HT29 colon): 3210 nM | GI50 (DU-145 prostate): 1580 nM | TGI (DU-145 prostate): 2920 nM | GI50 (UACC-257 melanoma): 1340 nM | TGI (UACC-257 melanoma): 2670 nM | GI50 (MDA-MB-435): 1220 nM | TGI (MDA-MB-435): 2540 nM | GI50 (SK-MEL-2 melanoma): 859 nM | TGI (SK-MEL-2 melanoma): 2140 nM | GI50 (PC-3 prostate): 1050 nM | TGI (PC-3 prostate): 2470 nM | GI50 (SF-539 CNS): 1190 nM | TGI (SF-539 CNS): 2490 nM | GI50 (U251 CNS): 738 nM | TGI (U251 CNS): 2080 nM | GI50 (HCT-15 colon): 399 nM | TGI (HCT-15 colon): 1660 nM | GI50 (TK-10 renal): 1470 nM | TGI (TK-10 renal): 2800 nM | GI50 (SR leukemia): 281 nM | TGI (SR leukemia): > 100000 nM | GI50 (COLO 205 colon): 1100 nM | TGI (COLO 205 colon): 2470 nM | GI50 (OVCAR-4 ovarian): 1540 nM | TGI (OVCAR-4 ovarian): 2930 nM | GI50 (UO-31 renal): 511 nM | TGI (UO-31 renal): 1930 nM | GI50 (HOP-92 NSCLC): 1190 nM | TGI (HOP-92 NSCLC): 2640 nM | GI50 (OVCAR-8 ovarian): 1260 nM | TGI (OVCAR-8 ovarian): 2540 nM | GI50 (HCT-116 colon): 780 nM | TGI (HCT-116 colon): 2140 nM | GI50 (ACHN renal): 1610 nM | TGI (ACHN renal): 2980 nM | GI50 (MDA-MB-231 breast): 1360 nM | TGI (MDA-MB-231 breast): 2700 nM | GI50 (HL-60(TB) leukemia): 319 nM | TGI (HL-60(TB) leukemia): 1280 nM | GI50 (SK-MEL-28 melanoma): 982 nM | TGI (SK-MEL-28 melanoma): 2340 nM | GI50 (SK-OV-3 ovarian): 1740 nM | TGI (SK-OV-3 ovarian): 3170 nM | GI50 (SF-268 CNS): 1390 nM | TGI (SF-268 CNS): 2900 nM | GI50 (MOLT-4 leukemia): 382 nM | TGI (MOLT-4 leukemia): > 100000 nM | GI50 (EKVX NSCLC): 1460 nM | TGI (EKVX NSCLC): 2840 nM | GI50 (SNB-19 CNS): 1250 nM | TGI (SNB-19 CNS): 2540 nM | GI50 (SW-620 colon): 709 nM | TGI (SW-620 colon): 2040 nM | GI50 (NCI-H460 lung): 1270 nM | TGI (NCI-H460 lung): 2960 nM | GI50 (SN12C renal): 1130 nM | TGI (SN12C renal): 2360 nM | GI50 (RXF 393 renal): 751 nM | TGI (RXF 393 renal): 2030 nM | GI50 (A498 renal): 1290 nM | TGI (A498 renal): 2570 nM | GI50 (NCI-H23 lung): 1270 nM | TGI (NCI-H23 lung): 2850 nM | GI50 (HS 578T breast): 1680 nM | TGI (HS 578T breast): 4920 nM | GI50 (OVCAR-5 ovarian): 1650 nM | TGI (OVCAR-5 ovarian): 3110 nM | GI50 (K-562 leukemia): 426 nM | TGI (K-562 leukemia): > 100000 nM | GI50 (LOX IMVI melanoma): 325 nM | TGI (LOX IMVI melanoma): 1090 nM | GI50 (MCF7 breast): 477 nM | TGI (MCF7 breast): 2040 nM | GI50 (CCRF-CEM leukemia): 164 nM | TGI (CCRF-CEM leukemia): > 100000 nM | GI50 (NCI-H522 lung): 1250 nM | TGI (NCI-H522 lung): 2530 nM | GI50 (MALME-3M melanoma): 1200 nM | TGI (MALME-3M melanoma): 2540 nM | GI50 (SK-MEL-5 melanoma): 1570 nM | TGI (SK-MEL-5 melanoma): 2950 nM | GI50 (KM12 colon): 1480 nM | TGI (KM12 colon): 2900 nM | GI50 (786-0 renal): 1090 nM | TGI (786-0 renal): 2320 nM | GI50 (SNB-75 CNS): 1330 nM | TGI (SNB-75 CNS): 2700 nM | GI50 (CAKI-1 renal): 1040 nM | TGI (CAKI-1 renal): 2220 nM | GI50 (HCC-2998 colon): 1510 nM | TGI (HCC-2998 colon): 2970 nM | GI50 (UACC-62 melanoma): 1200 nM | TGI (UACC-62 melanoma): 2500 nM | GI50 (SF-295 CNS): 1620 nM | TGI (SF-295 CNS): 3000 nM | GI50 (M14 melanoma): 1160 nM | TGI (M14 melanoma): 2490 nM
